In the CombiSolv-Exp solvation set (Vermeire and Green 2021):

Assay: solvent given as SMILES

O=[N+]([O-])c1ccccc1
Settings	solvation free energy, 298 K [kcal/mol]
in CCCCCC	-6.09
in CCCCCCC	-6.14
in CCCCCCCCCCCCCCCC	-6.12
in O	-4.23

C=CCCCCCCCC
Settings	solvation free energy, 298 K [kcal/mol]
in CN(C)C=O	-5.12
in O	2.24
in OCCOCCO	-3.32
in OCCOCCOCCO	-3.58
in OCCOCCOCCOCCO	-3.78

O=C(O)c1ccc(C(=O)O)cc1
Settings	solvation free energy, 298 K [kcal/mol]
in CN1CCCC1=O	-16.2
in O	-11.4

FS(F)(F)(F)(F)F
Settings	solvation free energy, 298 K [kcal/mol]
in Brc1ccccc1	0.67
in C1CCOC1	0.05
in C1COCCO1	0.52
in CC1COC(=O)O1	0.98
in CC#N	0.25
in CC(=O)N(C)C	0.76
in CC(C)(C)O	-0.11
in CC(C)=O	-0.07
in CC(C)CC(C)(C)C	-0.47
in CC(C)CO	0.1
in CCC(C)O	0.26
in CCCCCC	-0.41
in CCCCCCC	-0.32
in CCCCCCCC	-0.23
in CCCCCCCCC	-0.16
in CCCCCCCCCC	-0.06
in CCCCCCCCCCC	0
in CCCCCCCCCCCC	0.06
in CCCCCCCCCCCCC	0.12
in CCCCCCCCCCCCCC	0.15
in CCCCCCCCCCCCCCC	0.18
in CCCCCCCCCCCCCCCC	0.22
in CCCCCCCCCCCO	0.49
in CCCCCCCCCCO	0.47
in CCCCCCCCCO	0.43
in CCCCCCCCO	0.41
in CCCCCCCO	0.37
in CCCCCCO	0.34
in CCCCCO	0.29
in CCCCO	0.26
in CCCO	0.18
in CCO	0.14
in CN(C)C=O	0.83
in CN(C)P(=O)(N(C)C)N(C)C	0.66
in CNC=O	1.02
in CO	0.26
in CS(C)=O	-0.05
in Cc1ccc(C)cc1	0.19
in Cc1cccc(C)c1	0.19
in Cc1ccccc1C	0.27
in ClC(Cl)(Cl)Cl	-0.03
in Clc1ccccc1	0.35
in N#Cc1ccccc1	0.71
in O	3.04
in O=C1CCCC1	0.49
in O=C1CCCCC1	0.52

Fc1c(F)c(F)c(F)c(F)c1F
Settings	solvation free energy, 298 K [kcal/mol]
in C1CCOC1	-4.5
in C1COCCO1	-4.23
in CC(C)CC(C)(C)C	-3.53
in CC(C)OC(C)C	-4.13
in CCCCO	-3.46
in CCOCC	-4.35
in O	0.1

Clc1ccccc1
Settings	solvation free energy, 298 K [kcal/mol]
in C1CCOC1	-6.04
in C1COCCO1	-5.78
in CC(=O)N(C)C	-5.01
in CC(C)(C)O	-5.03
in CC(C)=O	-5.65
in CC(C)CC(C)(C)C	-4.92
in CC(C)CCO	-5.12
in CC(C)CO	-5.09
in CC(C)O	-4.92
in CC(O)CO	-4.36
in CCC(C)O	-5.09
in CCCCCC	-5.21
in CCCCCCC	-5.17
in CCCCCCCCCC	-4.93
in CCCCCCCCCCCCCCCC	-4.94
in CCCCCO	-5.21
in CCCCCl	-5.59
in CCOC(C)=O	-5.66
in CN(C)C=O	-5.66
in CNC(C)=O	-5.17
in CO	-5.01
in COCCO	-5.23
in Cc1ccc(C)cc1	-5.52
in Cc1ccccc1C	-5.59
in ClCCl	-5.91
in N#Cc1ccccc1	-5.63
in NC=O	-3.58
in O	-1.14
in OCCO	-3.88

C1CCCCCC1
Settings	solvation free energy, 298 K [kcal/mol]
in CC(C)O	-4.24
in CCCCCCCCCCCCCCCC	-4.83
in CCCO	-4.27
in CN1CCCC1=O	-3.99
in CN(C)C=O	-3.79
in CS(C)=O	-3.1
in N#CCCCCC#N	-3.34
in NCCO	-2.41
in O	0.79
in O=Cc1ccco1	-3.85
in OCc1ccco1	-3.74

CC(C)CCCCCCOC(=O)c1ccccc1C(=O)OCCCCCCC(C)C
Settings	solvation free energy, 298 K [kcal/mol]
in O	-6.14

CC=CCC
Settings	solvation free energy, 298 K [kcal/mol]
in CN(C)C=O	-2.46

C=C(C)C1CC=C(C)C(OC=O)C1 (configuration not stated)
Settings	solvation free energy, 298 K [kcal/mol]
in O	-3.82

CCC[N+](=O)[O-]
Settings	solvation free energy, 298 K [kcal/mol]
in CC(C)CC(C)(C)C	-3.94
in CCCCCC	-4.05
in CCCCCCC	-3.97
in CCCCCCCC	-3.95
in CCCCCCCCCCCCCCCC	-3.79
in CCCCCCCCO	-4.44
in O	-3.38
in [2H]O[2H]	-3.44

CCCCOCCOC(=O)c1ccccc1C(=O)OCCOCCCC
Settings	solvation free energy, 298 K [kcal/mol]
in O	-12.8

CCCCCC(C)=O
Settings	solvation free energy, 298 K [kcal/mol]
in CC(C)CCCC(C)CCCC(C)CCCCC(C)CCCC(C)CCCC(C)C	-4.99
in CCCCCC	-5.36
in CCCCCCC	-5.22
in CCCCCCCC	-5.25
in CCCCCCCCCC	-5.18
in CCCCCCCCCCCCCCCC	-5.06
in CCCCCCCCO	-5.65
in CCCCOCCCC	-5.73
in CO	-5.98
in NC=O	-4.75
in O	-3.09
in [2H]O[2H]	-3.07

CC(=O)Nc1ccc(O)cc1
Settings	solvation free energy, 298 K [kcal/mol]
in C1CCOC1	-16.1
in C1COCCO1	-14.9
in CC(C)(C)O	-15.8
in CC(C)CO	-15.6
in CC(C)O	-16
in CC(C)OCCO	-16.1
in CC(O)COC(C)(C)C	-15.5
in CCC(C)O	-15.8
in CCCCCCCO	-15.3
in CCCCCCO	-15.5
in CCCCCO	-15.6
in CCCCO	-15.8
in CCCCOC(C)=O	-14.2
in CCCCOCCCC	-12
in CCCCOCCO	-15.8
in CCCO	-16.1
in CCCOCCO	-16.1
in CCOCCO	-16.4
in CN(C)C=O	-17.3
in CO	-16.6
in COC(C)(C)C	-13.4
in COC(C)=O	-14.8
in COC(C)CCO	-16
in ClCCl	-12.8
in Fc1ccccc1	-12.1
in O	-14.9

C=CC(C)(C)O
Settings	solvation free energy, 298 K [kcal/mol]
in O	-4.19

CC(=O)Oc1ccccc1C(=O)O
Settings	solvation free energy, 298 K [kcal/mol]
in C1CCOC1	-14.3
in C1COCCO1	-14.1
in CC(=O)CC(C)C	-13.2
in CC(=O)OC(C)C	-13.1
in CC(C)(C)O	-13.7
in CC(C)=O	-14.1
in CC(C)CCO	-13.4
in CC(C)CO	-13.2
in CC(C)O	-13.6
in CC(C)OC(C)C	-12.4
in CCC(C)=O	-13.7
in CCC(C)O	-13.5
in CCCC(=O)OC	-13.1
in CCCC(C)O	-13.3
in CCCCCCCCCCO	-12.9
in CCCCCCCO	-13.1
in CCCCCCO	-13.2
in CCCCCO	-13.3
in CCCCO	-13.4
in CCCCOC(C)=O	-13.1
in CCCO	-13.6
in CCO	-14
in CCOC(C)=O	-13.5
in CCOCC	-13.2
in CO	-14.1
in COC(C)(C)C	-13.2
in COC(C)=O	-13.6

C=C(C)C1CCC2(C)CCCC(=C)C2C1 (configuration not stated)
Settings	solvation free energy, 298 K [kcal/mol]
in O	-0.05

O=NN1CCOCC1
Settings	solvation free energy, 298 K [kcal/mol]
in O	-7.78

CCc1cccs1
Settings	solvation free energy, 298 K [kcal/mol]
in O	-0.93

CN(C)CCc1ccc(O)cc1
Settings	solvation free energy, 298 K [kcal/mol]
in C=CCCCCCCC=C	-10.1
in O	-11.3

O=C(O)c1ccc(CCl)cc1
Settings	solvation free energy, 298 K [kcal/mol]
in C=CCCCCCCCCCCCCCC	-8.7
in O	-9.22

COc1cc(C=O)cc(-c2cc(C=O)cc(OC)c2O)c1O
Settings	solvation free energy, 298 K [kcal/mol]
in CCC(C)=O	-21.9
in Cc1ccccc1	-19.6
in ClC=CCl	-20.6
